Drawing on article PMC8138313, “Identification, Selection and Immune Assessment of Liver Stage CD8 T Cell Epitopes From Plasmodium falciparum” (Frontiers in Immunology, 2021), this text covers IC50 for 26 compounds.

Where a SMILES comes first, the peptide text is derived from it.

Among the targets are HLA A*0101 (Homo sapiens, UniProt P04439, A114D/A174V/A182V/D101N/D185E/E176A/E190D/L180R/Q94H/R68K/S129P/T187R/V100A/V91M/W191G); HLA A*0301 (Homo sapiens, UniProt P04439); HLA A*0201 (Homo sapiens, UniProt P04439, D140Y/D185E/D98H/E176V/E277Q/G131W/G231S/I119V/I121R/I166T/I218V/L300P/L318F/N151K/N90K/P208A/P217A/Q86G/Q94H/R138H/R169H/T345S).
Holding throughout (assay): HLA class I binding assay (cell-free competition, fluorescence polarization)
In general terms: Fluorescence polarisation rises when a labelled molecule tumbles more slowly, as on binding a larger partner.

Broadly, the IC50 is the midpoint of a concentration-inhibition curve. With `CC(C)C[C@H](NC(=O)[C@H](C)NC(=O)[C@H](CO)NC(=O)[C@@H](NC(=O)[C@H](CCCCN)NC(=O)[C@H](CC(=O)O)NC(=O)[C@H](CCCNC(=N)N)NC(=O)[C@@H](N)CS)[C@@H](C)O)C(=O)N[C@@H](Cc1ccc(O)cc1)C(=O)O` (H-CRDKTSALY-OH; N-terminus assumed), the IC50 at HLA A*0101 was more than 1000 µM.
Still for that read-out and setting: the value for `CC(C)C[C@H](NC(=O)[C@H](CC(=O)O)NC(=O)[C@H](CC(=O)O)NC(=O)[C@H](CO)NC(=O)[C@@H](N)CC(=O)O)C(=O)N[C@@H](CCCCN)C(=O)N[C@@H](CCC(=O)O)C(=O)N[C@@H](CO)C(=O)N[C@@H](Cc1ccc(O)cc1)C(=O)O` (H-DSDDLKESY-OH) was 2.6 µM.
Consider `CC(C)[C@H](NC(=O)[C@H](CCC(=O)O)NC(=O)[C@H](Cc1ccccc1)NC(=O)[C@@H](NC(=O)[C@@H](N)CC(=O)O)[C@@H](C)O)C(=O)N[C@@H](Cc1ccc(O)cc1)C(=O)N[C@@H](CO)C(=O)N[C@@H](CCC(=O)O)C(=O)N[C@@H](Cc1ccc(O)cc1)C(=O)O` (H-DTFEVYSEY-OH; N-terminus assumed), for which the IC50 on HLA A*0101 and at HLA A*0301 was more than 1000 µM throughout.
As to `CC[C@H](C)[C@H](NC(=O)[C@@H](N)Cc1ccccc1)C(=O)N[C@@H](CC(=O)O)C(=O)N1CCC[C@H]1C(=O)N[C@@H](CCC(N)=O)C(=O)N[C@H](C(=O)N[C@@H](CCC(=O)O)C(=O)N[C@@H](CCSC)C(=O)N[C@@H](Cc1ccccc1)C(=O)N[C@@H](CCCCN)C(=O)O)[C@@H](C)O` (H-FIDPQTEMFK-OH), the IC50 at HLA A*0101 was 46.6 µM; at HLA A*0301, 8.1 µM.
In the same order, the values of `CC(C)[C@H](NC(=O)[C@H](CC(N)=O)NC(=O)[C@@H](NC(=O)[C@@H](N)Cc1ccccc1)[C@@H](C)O)C(=O)N[C@@H](CC(N)=O)C(=O)N[C@@H](CCC(N)=O)C(=O)N[C@@H](Cc1ccccc1)C(=O)N[C@@H](Cc1ccccc1)C(=O)N[C@@H](CCCCN)C(=O)O` (H-FTNVNQFFK-OH) are more than 1000 µM and 0.921 µM.
Regarding `NCCCC[C@H](NC(=O)[C@H](CO)NC(=O)CN)C(=O)N[C@@H](CC(N)=O)C(=O)N[C@@H](CC(=O)O)C(=O)N[C@@H](Cc1ccccc1)C(=O)N[C@@H](CCC(N)=O)C(=O)N[C@@H](CCC(N)=O)C(=O)N[C@@H](CCC(N)=O)C(=O)N[C@@H](Cc1ccc(O)cc1)C(=O)O` (H-GSKNDFQQQY-OH; N-terminus assumed), at HLA A*0101, the IC50 was more than 1000 µM.
On HLA A*0101, `CC(C)C[C@H](NC(=O)CNC(=O)[C@@H]1CCCN1C(=O)[C@H](Cc1ccccc1)NC(=O)[C@@H](NC(=O)[C@H](CO)NC(=O)[C@@H](NC(=O)[C@@H](N)Cc1c[nH]cn1)[C@@H](C)O)C(C)C)C(=O)N[C@@H](Cc1ccc(O)cc1)C(=O)O` (H-HTSVFPGLY-OH) gave an IC50 of 5.65 µM.
Regarding `CC[C@H](C)[C@H](N)C(=O)N[C@H](C(=O)N[C@@H](CC(N)=O)C(=O)N[C@@H](CCCCN)C(=O)N[C@@H](CC(N)=O)C(=O)N[C@@H](CCCCN)C(=O)N[C@H](C(=O)N[C@H](C(=O)N[C@H](C(=O)N[C@@H](Cc1ccc(O)cc1)C(=O)O)[C@@H](C)CC)[C@@H](C)O)C(C)C)[C@@H](C)O` (H-ITNKNKVTIY-OH), the IC50 on HLA A*0101 is more than 1000 µM; at HLA A*0301 it was 8.72 µM.
As to `CC(C)[C@H](NC(=O)[C@H](CCC(=O)O)NC(=O)[C@H](Cc1ccccc1)NC(=O)[C@@H](NC(=O)[C@H](CC(=O)O)NC(=O)[C@H](CC(=O)O)NC(=O)[C@H](CCC(=O)O)NC(=O)[C@@H](N)CCCCN)[C@@H](C)O)C(=O)N[C@@H](Cc1ccc(O)cc1)C(=O)O` (H-KEDDTFEVY-OH; N-terminus assumed), the IC50 on HLA A*0101 was more than 1000 µM.
On to `CC(C)C[C@H](NC(=O)[C@H](CC(=O)O)NC(=O)[C@H](CC(C)C)NC(=O)[C@H](CO)NC(=O)[C@@H]1CCCN1C(=O)[C@H](CCCCN)NC(=O)[C@H](CC(N)=O)NC(=O)[C@H](CC(C)C)NC(=O)[C@H](CC(C)C)NC(=O)[C@@H](N)CCCCN)C(=O)O` (H-KLLNKPSLDL-OH), for which the IC50 was determined as 4.26 µM on HLA A*0201 and 2.36 µM on HLA A*0301.
Compound `CC[C@H](C)[C@H](NC(=O)[C@@H](N)CC(C)C)C(=O)N[C@@H](CO)C(=O)N[C@@H](CCCNC(=N)N)C(=O)N[C@@H](CC(C)C)C(=O)N[C@H](C(=O)N[C@@H](CC(C)C)C(=O)N[C@@H](CCCCN)C(=O)N[C@@H](Cc1ccc(O)cc1)C(=O)O)[C@@H](C)O` (H-LISRLTLKY-OH) returned an IC50 on HLA A*0101 of 11.5 µM. That is a double-digit micromolar value.
Same read-out and setting: the value for `CC[C@H](C)[C@H](NC(=O)[C@H](CC(N)=O)NC(=O)[C@H](CCC(=O)O)NC(=O)[C@@H](NC(=O)[C@H](CC(N)=O)NC(=O)[C@H](CO)NC(=O)[C@H](CO)NC(=O)[C@@H](N)CC(C)C)[C@@H](C)CC)C(=O)N[C@@H](Cc1ccc(O)cc1)C(=O)O` (H-LSSNIENIY-OH) was 29.6 µM.
`CC[C@H](C)[C@H](NC(=O)[C@H](CO)NC(=O)[C@H](CCCCN)NC(=O)[C@H](CC(N)=O)NC(=O)[C@H](CCC(N)=O)NC(=O)[C@H](Cc1ccccc1)NC(=O)[C@H](Cc1ccccc1)NC(=O)[C@H](CC(C)C)NC(=O)[C@@H](N)CC(N)=O)C(=O)O` (H-NLFFQNKSI-OH; N-terminus assumed) had a concentration for half-maximal inhibition (IC50) at HLA A*0201 of more than 1000 µM.
On the same count and under the same terms, with `CC[C@H](C)[C@H](NC(=O)[C@H](CC(N)=O)NC(=O)[C@H](CCC(N)=O)NC(=O)[C@H](CCC(N)=O)NC(=O)[C@H](Cc1ccc(O)cc1)NC(=O)[C@H](CCSC)NC(=O)[C@@H](N)CC(N)=O)C(=O)N1CCC[C@H]1C(=O)N[C@@H](CC(C)C)C(=O)O` (H-NMYQQNIPL-OH) the figure was 331 µM.
In the case of `CSCC[C@H](NC(=O)[C@H](CC(N)=O)NC(=O)[C@H](CC(N)=O)NC(=O)[C@H](CCCNC(=N)N)NC(=O)[C@H](Cc1ccccc1)NC(=O)[C@H](CC(N)=O)NC(=O)[C@H](CC(N)=O)NC(=O)[C@@H](N)CC(N)=O)C(=O)N[C@@H](Cc1ccc(O)cc1)C(=O)O` (H-NNNFRNNMY-OH; N-terminus assumed), the IC50 at HLA A*0101 was more than 1000 µM.
Still for that read-out and setting: with `CC[C@H](C)[C@H](NC(=O)[C@H](CC(C)C)NC(=O)[C@H](CC(=O)O)NC(=O)[C@H](CC(C)C)NC(=O)[C@H](CCCCN)NC(=O)[C@H](CC(=O)O)NC(=O)[C@H](CO)NC(=O)[C@@H](N)CC(N)=O)C(=O)N[C@@H](Cc1ccc(O)cc1)C(=O)O` (H-NSDKLDLIY-OH) the figure was 0.875 µM; with `CC(C)[C@H](NC(=O)[C@H](CC(N)=O)NC(=O)[C@@H]1CCCN1C(=O)[C@H](CO)NC(=O)[C@@H](N)CC(N)=O)C(=O)N[C@@H](CC(N)=O)C(=O)N[C@@H](CCCCN)C(=O)N[C@@H](CCCNC(=N)N)C(=O)N[C@@H](Cc1ccc(O)cc1)C(=O)O` (H-NSPNVNKRY-OH; N-terminus assumed), more than 1000 µM; with `CC(C)[C@H](NC(=O)[C@@H](NC(=O)[C@@H](N)CC(N)=O)[C@@H](C)O)C(=O)N[C@@H](CCCCN)C(=O)N[C@@H](CS)C(=O)N1CCC[C@H]1C(=O)N[C@@H](CC(N)=O)C(=O)N[C@@H](CC(=O)O)C(=O)N[C@@H](Cc1ccc(O)cc1)C(=O)O` (H-NTVKCPNDY-OH), 282 µM.
In turn, `CC[C@H](C)[C@H](NC(=O)[C@@H](N)CO)C(=O)N[C@@H](CO)C(=O)N[C@@H](CC(=O)O)C(=O)N[C@@H](Cc1ccc(O)cc1)C(=O)N[C@H](C(=O)N[C@@H](CCCCN)C(=O)N[C@@H](CO)C(=O)N[C@@H](CC(C)C)C(=O)O)[C@@H](C)O` (H-SISDYTKSL-OH) displayed an IC50 at HLA A*0201 of 352 µM.
`CC[C@H](C)[C@H](NC(=O)[C@H](CC(N)=O)NC(=O)[C@@H](NC(=O)[C@H](CCSC)NC(=O)[C@@H](N)CO)[C@@H](C)O)C(=O)N1CCC[C@H]1C(=O)N[C@@H](CCSC)C(=O)N[C@@H](CC(N)=O)C(=O)N[C@H](C(=O)O)C(C)C` (H-SMTNIPMNV-OH) returned an IC50 on HLA A*0201 of 0.244 µM.
The compound `C[C@H](NC(=O)[C@H](CO)NC(=O)[C@@H](N)CO)C(=O)N[C@@H](CC(N)=O)C(=O)N[C@@H](CC(=O)O)C(=O)N[C@@H](CCC(=O)O)C(=O)N[C@@H](CCC(N)=O)C(=O)N[C@@H](CO)C(=O)N[C@@H](Cc1ccc(O)cc1)C(=O)O` (H-SSANDEQSY-OH) registered an IC50 at HLA A*0101 of 65 µM.
Regarding `CC[C@H](C)[C@H](NC(=O)[C@H](CC(=O)O)NC(=O)[C@@H](NC(=O)[C@@H](N)CO)[C@@H](C)O)C(=O)N[C@H](C(=O)N[C@@H](Cc1ccccc1)C(=O)N[C@@H](CC(C)C)C(=O)N[C@H](C(=O)N[C@@H](CCSC)C(=O)N[C@@H](CCCCN)C(=O)O)[C@@H](C)O)[C@@H](C)CC` (H-STDIIFLTMK-OH), the results for the IC50 on HLA A*0101 and at HLA A*0301 were more than 1000 µM and 8.78 µM, respectively.
At HLA A*0101, `C[C@@H](O)[C@H](N)C(=O)N[C@@H](CO)C(=O)N[C@@H](CCCCN)C(=O)N[C@@H](CCC(N)=O)C(=O)NCC(=O)N[C@@H](CO)C(=O)N[C@@H](CO)C(=O)N[C@@H](CC(N)=O)C(=O)N[C@@H](CCCCN)C(=O)N[C@@H](Cc1ccc(O)cc1)C(=O)O` (H-TSKQGSSNKY-OH; N-terminus assumed) displayed a 50% inhibitory concentration (IC50) of more than 1000 µM.
`CC[C@H](C)[C@H](NC(=O)CNC(=O)[C@H](Cc1ccc(O)cc1)NC(=O)[C@H](Cc1c[nH]cn1)NC(=O)[C@@H](NC(=O)[C@@H](N)C(C)C)[C@@H](C)CC)C(=O)N[C@@H](CC(N)=O)C(=O)N1CCC[C@H]1C(=O)N[C@H](C(=O)O)C(C)C` (H-VIHYGINPV-OH) showed an IC50 at HLA A*0201 of 1.7 µM.
In the case of `CC[C@H](C)[C@H](NC(=O)[C@H](CC(=O)O)NC(=O)[C@H](CC(N)=O)NC(=O)[C@H](CC(N)=O)NC(=O)[C@H](CC(C)C)NC(=O)[C@@H](N)Cc1c[nH]c2ccccc12)C(=O)N[C@@H](Cc1ccc(O)cc1)C(=O)N[C@@H](CC(N)=O)C(=O)N[C@H](C(=O)O)C(C)C` (H-WLNNDIYNV-OH), the IC50 on HLA A*0201 was found to be 0.16 µM.
Still for that read-out and setting: with `CC[C@H](C)[C@H](NC(=O)[C@@H](NC(=O)[C@@H](NC(=O)[C@H](CCCCN)NC(=O)[C@H](CC(N)=O)NC(=O)[C@H](CCCCN)NC(=O)[C@H](CC(N)=O)NC(=O)[C@@H](NC(=O)[C@@H](NC(=O)[C@@H](N)Cc1ccc(O)cc1)[C@@H](C)CC)[C@@H](C)O)C(C)C)[C@@H](C)O)C(=O)O` (H-YITNKNKVTI-OH; N-terminus assumed) the figure was more than 1000 µM.
